Data on 19 compounds can be found in patent publication US20190142810A1, “MITOCHONDRIAL INHIBITORS FOR THE TREATMENT OF PROLIFERATION DISORDERS” (Basilea Pharmaceutica International AG, priority 2016, published 2019).

Experiment [1] has as its system HeLa galactose cells. In words: Cell growth and proliferation assay of HeLa galactose cells (crystal violet). In kind it is cell-based. The following applies: Homo sapiens, HeLa, 72 h, 72 hours incubation, crystal violet staining, absorbance at 590 nm. As to the method:
The cervical tumor cell line HeLa (ATCC, CCL-2) was cultivated in DMEM medium (Invitrogen cat. no. 11971, 4.5 g/L high glucose) containing 10% fetal calf serum (Sigma cat. no. F9665) and 1% Penicillin/Streptomycin (Sigma cat. no. P0781) at 37° C. in 5% CO2. HeLa galactose cells (i.e. HeLa cells that grow in high concentrations of galactose) were generated from HeLa glucose cells (i.e. HeLa cells that grow in high concentrations of glucose) by gradually changing the amount of glucose in the media to zero glucose in the presence of galactose as a sugar source (50% galactose/50% glucose media for one week, then 75% galactose/25% glucose media for one week, to 100% galactose media in the third week). Galactose media (Invitrogen cat. no. 11966) was supplemented with 10 mM galactose (Sigma cat. no. G5388).
Cell Growth and Proliferation Assay of HeLa Galactose and Glucose Cells
HeLa galactose cells and HeLa glucose cells were seeded in 96 well plates (TPP, cat. no 92696) at 2000 and 1500 cells/well, respectively, in 100 μL of complete medium. After overnight incubation the cells were incubated for 72 hours in complete medium containing 0.001% DMSO or compounds (final concentration of DMSO 0.001%). After the medium was removed, cells were fixed and stained by adding 50 μL crystal violet staining (0.2% crystal violet (Sigma-Aldrich cat. no. C0775) in 50% methanol) per well. The plates were incubated for 1 hour at room temperature. Subsequently the stain was decanted and plates were washed 4 times with de-mineralized water. Plates were air-dried for 2 hours. The stain was dissolved by adding 100 μL buffer (0.1 M Tris pH 7.5, 0.2% SDS, 20% ethanol) per well and shaking the plates. Absorbance at 590 nm was measured using a SpectraMax® 250 plate reader (Molecular Devices). Antiproliferative/growth inhibition IC50s were calculated from concentration-response curves using GraphPad Prism software.

For experiment [2], the system named is Oxygen consumption (mitochondrial function). Kind of experiment: Oxygen consumption assay (MitoXpress probe). It is filed as cell-based. To be noted: 5 h, MitoXpress probe signal, kinetic analysis at 37° C. for 5 hours, compared to untreated cells. The text has this:
Oxygen consumption is one of the most informative and direct measures of mitochondrial function and can be measured, for example, by using the MitoXpress® assay (Luxcel MX-2001, Luxcel Biosciences). The MitoXpress® probe is one of a family of phosphorescent oxygen sensitive probes. The assay exploits the ability of oxygen to quench the excited state of the MitoXpress® probe. As the test material respires (i.e. the cells), oxygen is depleted in the surrounding solution/environment, which increases the probe phosphorescence signal. Changes in oxygen consumption reflecting changes in mitochondrial activity are seen as changes in the MitoXpress® probe signal over time.
Cells were seeded in 96 well black plates with transparent bottoms (Greiner Bio-One cat. no. 655090) at a density of 50′000 cells/well in a final volume of 100 μL. After 24 hours the incubation media was removed and 150 μL of fresh media containing inhibitors at different concentrations was added to each well. Then, 10 μL of MitoXpress® and 150 μL mineral oil were added per well. Reading from the top of the plate, kinetic analysis was performed at 37° C. for 5 hours using a Synergy 4 plate reader (BioTek) and Time-resolved Fluoresence (TRF) wavelengths of 380/11 nm excitation and 650/20 nm emission or 665/40 emission (30 microsecond delay time, 100 microsecond integration time, gain or sensitivity settings set at either medium or high). IC50s were calculated as the concentration that inhibits 50% of the phosphorescent oxygen sensitive probe signal (MitoXpress®) as compared to untreated cells.

The structures appear in SMILES notation.

Regarding `Cc1cc(NC(=O)N2CCC(=Cc3c(F)cc(N(C)C)cc3F)CC2)sn1` [Example 148, 4-[[4-(dimethylamino)-2,6-difluoro-phenyl]methylene]-N-(3-methylisothiazol-5-yl)piperidine-1-carboxamide], the values for the IC50 in experiment [1] and in experiment [2] were 9 nM and 16 nM, respectively.
Taken in the same sequence, the figures for `Cc1nsc(NC(=O)N2CCC(C(=O)c3ccc(Br)cc3)CC2)n1` [Example 77, 4-(4-bromobenzoyl)-N-(3-methyl-1,2,4-thiadiazol-5-yl)piperidine-1-carboxamide] were 48 nM and 54 nM.
As for `Cc1cc(NC(=O)N2CCC(Cc3c(F)cc(Cl)cc3F)CC2)ccn1` [Example 145], the IC50 (in general, the concentration that gives 50% inhibition) in experiment [1] was determined as 15 nM; in experiment [2], 106 nM.
For `Cc1nsc(NC(=O)N2CCCC(=Cc3c(F)cc(Cl)cc3F)CC2)n1` [Example 114] the same measures were 19 nM and 65 nM.
In the case of `Cc1nsc(NC(=O)N2CCC(C(=O)c3ccc(Br)cc3F)CC2)n1` [Example 141, 4-(4-bromo-2-fluoro-benzoyl)-N-(3-methyl-1,2,4-thiadiazol-5-yl)-piperidine-1-carboxamide], the half-maximal inhibitory concentration (IC50) amounted to 29 nM in experiment [1] and 56 nM in experiment [2].
In the case of `Cc1nsc(NC(=O)N2CCC(Cc3ccc(OC(F)(F)F)cc3F)CC2)n1` [Example 55], the results for the IC50 in experiment [1] and in experiment [2] were 202 nM and 383 nM, respectively.
On to `O=C(Nc1ncns1)N1CCC(Cc2ccc(Cl)cc2F)CC1` [Example 48], for which the IC50 came out at 146 nM in experiment [1] and 278 nM in experiment [2].
For the compound `Cc1nsc(NC(=O)N2CCC(Cc3ccc(F)cc3)CC2)n1` [Example 1, 1-Piperidinecarboxamide, 4-[(4-fluorophenyl)methyl]-N-(3-methyl-1,2,4-thiadiazol-5-yl)-], the results for the half-maximal inhibitory concentration (IC50) in experiment [1] and in experiment [2] were 161 nM and 193 nM, respectively.
Consider `Cc1nsc(NC(=O)N2CCCN(Cc3ccc(Cl)cc3F)CC2)n1` [Example 51], for which the results for the IC50 in experiment [1] and in experiment [2] were 67 nM and 182 nM, respectively.
Turning to `Cc1nccc(NC(=O)N2CCC(Cc3ccc(Cl)cc3F)CC2)n1` [Example 71], the IC50 in experiment [1] was found to be 227 nM; in experiment [2] it was 338 nM.
`COc1cc(F)c(C=C2CCN(C(=O)Nc3nc(C)ns3)CC2)cn1` [Example 69]: the values for the IC50 in experiment [1] and in experiment [2] were 91 nM and 119 nM, respectively.
Regarding `Cc1nsc(NC(=O)N2CCC(=Cc3c(F)cc(N(C)CCO)cc3F)CC2)n1` [Example 158, 4-[[2,6-difluoro-4-[2-hydroxyethyl(methyl)amino]phenyl]methylene]-N-(3-methyl-1,2,4-thiadiazol-5-yl)piperidine-1-carboxamide], the results for the IC50 in experiment [1] and in experiment [2] were 28 nM and 40 nM, respectively.
Turning to `Cc1nsc(NC(=O)N2CCC(C(=O)c3ccc(N(C)C)cc3F)CC2)n1` [Example 155, 4-[4-(dimethylamino)-2-fluoro-benzoyl]-N-(3-methyl-1,2,4-thiadiazol-5-yl)piperidine-1-carboxamide], the IC50 in experiment [1] came to 149 nM.
In turn, `Cc1nsc(NC(=O)N2CCC(Cc3ccc(N4CCCC4)cc3F)CC2)n1` [Example 44] gave an IC50 in experiment [1] of 429 nM.
In the case of `COCCC1CN(C(=O)Nc2nc(C)ns2)CC/C1=C\c1ccc(Cl)cc1F` (stereo not shown) [Example 135, (4E)-4-[(4-chloro-2-fluoro-phenyl)methylene]-3-(2-methoxyethyl)-N-(3-methyl-1,2,4-thiadiazol-5-yl)piperidine-1-carboxamide], in experiment [1], half-maximal inhibition (IC50) required 636 nM.
`Cc1nsc(NC(=O)N2CC/C(=C/c3c(F)cc(Cl)cc3F)CC2(C)C)n1` [Example 169] had an IC50 in experiment [1] of 432 nM.
In turn, `Cc1nsc(NC(=O)N2CCCC(Cc3ccc(N(C)C)cc3F)CC2)n1` (stereo not shown) [Example 126] had an IC50 in experiment [1] of 68 nM.
`Cc1nsc(NC(=O)N2CCC(Cc3ccc(CN4CCOCC4)cc3)CC2)n1` [Example 34, N-(3-methyl-1,2,4-thiadiazol-5-yl)-4-[[4-(morpholinomethyl)phenyl]methyl]piperidine-1-carboxamide] registered an IC50 in experiment [1] of 572 nM.
In experiment [1], `Cc1cc(NC(=O)N2CCC(C(=O)c3c(F)cc(C#N)cc3F)CC2)ccn1` [Example 174] gave an IC50 of 160 nM.
